# Key:
# [1] = tested on: various hematological malignancies cell lines including those from DLBCL and FL; assay: Anti-proliferative activity as single agent in hematological malignancies cell lines (data not shown); type: cell-based
# [2] = tested on: human OCI-LY1 (DLBCL) xenograft tumor; type: in vivo; conditions: Cpd. 6 50 mg/kg, Ibrutinib 20 mg/kg
# Procedure: . All animal experiments were strictly in accordance with the laboratory animal use and management practices of GenePharma Co., Ltd. and Ascentage Pharma Group Co., Ltd. The calculation of relevant parameters referred to the Chinese CFDA “Guidelines for Non-Clinical Research Techniques of Cytotoxic Antitumor Drugs”.
# (§1) Animal body weight and tumor size were measured twice a week during the experiment. Tumor growth was observed periodically, and the animals were randomly divided into groups according to tumor size and mouse body weight when the tumors grew to an average volume of 100-200 mm^3. The conditions and death of the animals were observed every day. Routine monitoring included the effects of tumor growth and treatment on normal animal behaviors, including activity, feeding and drinking situations, weight gain or loss, eyes, coat and other abnormalities in the experimental animals. The deaths and clinical symptoms observed during the experiment were recorded in the raw data. The entire operations of administration, measurement of mouse body weight and tumor volume were performed in a clean bench. Plasma and tumor tissues were collected, weighed and photographed after the end of the last administration according to the experimental protocol. Plasma and tumor samples were frozen and stored at −80° C.
# Tumor volume (TV) was calculated as: TV=a×b^2/2, in which a and b represented the length and width of the tumor as measured, respectively. The relative tumor volume (RTV) was calculated as: RTV=Vt/V1, in which V1 was the tumor volume at the time of grouping and administration, and Vt was the tumor volume measured on a day after administration. The evaluation index of anti-tumor activity was the relative tumor proliferation rate T/C (%), which was calculated as: relative tumor proliferation rate T/C (%)=(TRTV/CRTV)×100%, in which TRTV was the RTV of the treatment group, CRTV was the RTV of the vehicle control group; tumor remission rate (%) was calculated as: (the number of SD (stable disease), PR (tumor partial regression) and CR (tumor complete regression) in the tumor-bearing mice after treatment)/the total number of mice in the group×100%. Change of body weight %=(measured body weight−body weight at the time of grouping)/body weight at the time of grouping×100%.
# ; The synergistic analysis was performed by the following formula: synergy factor=((A/C)×(B/C))/(AB/C); A=RTV value of the group administered with A only; B=RTV value of the group administered with B only; C=RTV value of the vehicle control group; AB=RTV value of the group administered with A and B in combination (Clarke R. Issues in experimental design and endpoint analysis in the study of experimental cytotoxic agents in vivo in breast cancer and other models [J]. Breast Cancer Research & Treatment, 1997, 46(2-3): 255-278). If the synergy factor was >1, there was a synergistic effect; if the synergistic factor=1, there was an additive effect; if the synergistic factor <1, there was an antagonistic effect.
# DOHH2^R-ibrutinib cells = assay: CellTiter-Glo cell viability assay, ibrutinib-resistant DOHH2R-ibrutinib cells; type: cell-based, human; conditions: Homo sapiens; ibrutinib-resistant cells, CellTiter-Glo, 24 or 72 hours; read-out: IC50 value to the DOHH2^R-ibrutinib cell line (cell viability)
# Procedure: (§2) DOHH2 cells were cultured in RPM11640 medium containing 10% calf serum, 1% antibiotics and 5 ug/ml verapamil (calcium ion channel blocker), and ibrutinib was added at a gradually increasing concentration from 0.5 uM to 10 uM. After exposure for about three months, a ibrutinib-resistant DOHH2R cell line was obtained, also referred to as DOHH2^R-ibrutinib. After DOHH2^R-ibrutinib was stabilized, it was continued to be cultured in culture medium containing 10 uM Ibrutinib to maintain its resistance. Ibrutinib is absent only in the susceptibility test with Compound 6 or 88.
# (§3) Relative light units (RLU) were determined by a microplate reader (BioTek, Synergy H1 MF, USA). […] IC50 values were calculated using GraphPad Prism. IC50 was expressed as mean±standard deviation (SD).
# DOHH-2 cells = assay: Flow cytometry analysis of apoptosis (Annexin V/PI), DOHH-2; type: cell-based, human; conditions: DOHH-2, 24 hours; 10 nM Compound 6, 100 nM ibrutinib, or the combination
# Procedure: (§4) Apoptosis was evaluated with AnnexinV/propidium iodide (PI) dyes (BD Biosciences, Cat. 556547) according to manufacturer's instructions. Briefly, cells were seeded in 24-well plates at a density 2×10^5 cells/well, and treated with Compound 6 and/or ibrutinib (Selleck) to induce apoptosis. After 24 h, cells were collected, washed twice with PBS (pH 7.4), and stained with Annexin-V and propidium iodide (PI) for 15 mins. Stained samples were analyzed using flow cytometer Attune NxT (Life technologies).
# (§5) In the experiment, the combination treatment with Compound 6 and ibrutinib was evaluated for its ability of apoptosis induction on DOHH2 and OCI-LY1 cells by co-staining of Annexin-V/Propidium iodide (PI) followed by flow cytometry analysis (FIG. 7A). […] Flow cytometry analysis of apoptotic cells by Annexin V and propidium iodide (PI) co-staining in DOHH-2 and OCI-LY1 cell lines treated with 10 nM (DOHH-2) or 15 nM (OCI-LY1) Compound 6, 100 nM (DOHH-2) or 150 nM (OCI-LY1) ibrutinib, or the combination for 24 hours. Three independent experiments were conducted and the representative results are shown (7A). The percentages of Annexin V-positive, PI-positive, or double positive DOHH-2 (7B) and OCI-LY1 (7C) cells are plotted as bar charts and shown as mean±SEM (n=3) (**p<0.01, ***p<0.001).
# OCI-LY1 cells = assay: Flow cytometry analysis of apoptosis (Annexin V/PI), OCI-LY1; type: cell-based, human; conditions: OCI-LY1, 24 hours; 15 nM Compound 6, 150 nM ibrutinib, or the combination
# Procedure: as §4, §5
# [3] = tested on: human DOHH2 (FL) xenograft tumor; type: in vivo; conditions: Cpd. 6 100 mg/kg, Ibrutinib 25 mg/kg
# Procedure: All animal experiments were strictly in accordance with the laboratory animal use and management practices of GenePharma Co., Ltd. and Ascentage Pharma Group Co., Ltd. The calculation of relevant parameters referred to the Chinese CFDA “Guidelines for Non-Clinical Research Techniques of Cytotoxic Antitumor Drugs”.
# as §1
# Tumor volume (TV) was calculated as: TV=a×b^2/2, in which a and b represented the length and width of the tumor as measured, respectively. The relative tumor volume (RTV) was calculated as: RTV=Vt/V1, in which V1 was the tumor volume at the time of grouping and administration, and Vt was the tumor volume measured on a day after administration. […] Change of body weight %=(measured body weight−body weight at the time of grouping)/body weight at the time of grouping×100%.
# If the synergy factor was >1, there was a synergistic effect; if the synergistic factor=1, there was an additive effect; if the synergistic factor <1, there was an antagonistic effect.
# DOHH2 cells = assay: CellTiter-Glo cell viability assay, DOHH2 cells (Example 11); type: cell-based; conditions: Homo sapiens, DOHH-2, DOHH2 parental cells
# Procedure: as §2, §3
compound,measurement,setting,value
"O=C(NS(=O)(=O)c1ccc(NC[C@H]2COCCO2)c([N+](=O)[O-])c1)c1ccc(N2CCN(CC3=C(c4ccc(Cl)cc4)CC4(CCC4)CC3)CC2)cc1Oc1cnc2[nH]ccc2c1 [Compound 6, (S)-N-((4-(((1,4-dioxan-2-yl)methyl)amino)-3-nitrophenyl)sulfonyl)-2-((1H-pyrrolo[2,3-b]pyridin-5-yl)oxy)-4-(4-((6-(4-chlorophenyl)spiro[3.5]non-6-en-7-yl)methyl)piperazin-1-yl)benzamide]",anti-proliferative activities as a single agent compared with ABT-199,[1],comparable if not better than ABT-199
same,RTV on day 36 after administration (mean ± standard error),[2]; day 36,2.2 ± 0.4
same,T/C on day 36 after administration,"[2]; day 36, given as fraction",0.090
same,RTV on day 43 after administration,[2]; day 43,7.1 ± 0.4
same,IC50,DOHH2^R-ibrutinib cells,0.648 µM
same,apoptosis induction (Annexin V / PI positive cells),DOHH-2 cells,slightly enhanced apoptotic activity
same,apoptosis induction (Annexin V / PI positive cells),OCI-LY1 cells,slightly enhanced apoptotic activity
same,TGI (%) on day 32 after administration,[3]; TGI = 100 − T/C%,81%
same,RTV on day 32 after administration (mean ± standard error),[3]; day 32,2.4 ± 0.2
same,T/C (%) on day 32 after administration,[3]; day 32,19%
same,IC50,DOHH2 cells,0.0484 µM

# From patent US11478470B2, “Combination product of Bcl-2 inhibitor or Bcl-2/Bcl-xL dual inhibitor and BTK inhibitor and use thereof in the prevention and/or treatment of diseases” (ASCENTAGE PHARMA (SUZHOU) CO., LTD., priority 2018, dated 2022)
